The nature of one series: Lipophilicity of the PFC. The format is physicochemical. An excerpt: Circulation of the perflurocarbon liquid can be employed so that the patient floats without constraints, alleviating pain associated with usual system of treatment. As the liquid is continuously circulated, external heating or cooling of the fluid can be employed in order to maintain a comfort level for the patient. The fluid is preferably filtered to assure a biologically inert and/or sterile liquid environment for the patient. Additionally, a gas mixture containing 0 to 100% oxygen from (with adequate controls and precautions for ultra-ambient levels) is bubbled in the circulating PFC to supply oxygen to the patient's skin. PFCs are excellent transporters of oxygen and carbon dioxide; being that the PFCs are slightly lipophilic at body temperature and would help in the transport of oxygen into and removal of carbon dioxide from the skin tissue, accelerating the healing process.

Series [1] can be described thus: Physical properties of F-tert-butylcyclohexane. The format is physicochemical. An excerpt: Oxycyte™ is based on the perfluorocarbon F-tert-butylcyclohexane, a saturated alicyctic PFC (molecular formula C10F20) and can be used as a PFC composition in the methods and uses described herein. Physical properties of F-tert-butylcyclohexane are as follows: […]

As to `FC(F)(F)C(C(F)(F)F)(C(F)(F)F)C1(F)C(F)(F)C(F)(F)C(F)(F)C(F)(F)C1(F)F` [F-tert-butylcyclohexane, perfluoro-tert-butylcyclohexane], the Lipophilicity result in the series “Lipophilicity of the PFC” (at body temperature) is “only slightly lipophilic”; in the series “Lipophilicity of the PFC” (at room temperature), “not lipophilic”. Also, in series [1], the Density is 1.97 g/mL. Further, in series [1], the “Kinematic Viscosity” value stood at 5.378 cP. The entries for the “Vapor Pressure” value in series [1] (@25° C.) and in series [1] (@37° C.) were 3.8 mmHg and 4.4 mmHg, respectively.

Values taken from US20110229575A1, “DEEP IMMERSION FLOTATION THERAPY FOR BURN VICTIMS” (priority 2008, published 2011).
